The nature of data set [1]: In vivo conversion of prodrug to 1H pyrazol compound (serum). The following applies: in the serum mainly only the final active ingredient (CRCV-340) can be proven. From the text:
Also covered are pro pharmacons (prodrugs) of the compounds, especially those which are characterized by a substituent on the pyrazol heteroatom in position 1. It has been shown that such types of compounds are converted in vivo to the 1H pyrazol compound. As an example, compounds have been mentioned in respect of which the pyrazol heteroatom in position 1 is substituted by an imino(phenyl)methyl substituent, such as, for example, 1-[Imino(phenyl)methyl]-4-amino-3-(4-trifluormethyl-phenyl)amino-6-phenylpyrazolo[3,4-d]pyrimidine, also designated by the IUPAC name 1-benzylcarboximidoyl-6-phenyl-3-N-[4-(trifluormethyl)phenyl]-1H-pyrazolo[3,4-d]-pyrimidine-3,4-diamine. Here this relates to a by-product of the manufacture of the compound described above, CRCV-340, resulting from the reaction of the compound CRCV-340 with an excess of benzamidine in the reaction mixture and having the following formula: […]
Also included are the salts, solvates or solvates of the salts produced by the above compounds. Within the scope of this invention the preferred salts are physiologically harmless salts of the compounds relating to the invention. […]

For data set [2] the following is noted: in vivo; cited from earlier work.
The conditions of data set [3]: in vivo; cited from earlier work. This is another data set of the same source.
Data set [4] relates to 48 rhinovirus types, coxsackie virus A21, enterovirus 70, echovirus 11. The conditions noted are these: Pattick et al. 1999; cited from earlier work.
The conditions of data set [5]: cited from earlier work.
The conditions of data set [6]: in vivo; cited from earlier work. This is another data set of the same source.

The text below walks through data of US9790225B2, “4-amino-3-phenylamino-6-phenylpyrazolo[3,4-d]pyrimidine derivatives, their manufacture and their use as antiviral active substances” (Scandion Oncology A/S, priority 2011, dated 2017).

For `N=C(c1ccccc1)n1nc(Nc2ccc(C(F)(F)F)cc2)c2c(N)nc(-c3ccccc3)nc21` [CRCV-340 prodrug, 1-[Imino(phenyl)methyl]-4-amino-3-(4-trifluormethyl-phenyl)amino-6-phenylpyrazolo[3,4-d]pyrimidine], the “Conversion in vivo into the target compound” value in data set [1] is on record as “very easily converted into the target compound”. Consider `Cc1cc(CCCCCOc2c(Cl)cc(C3=NCCO3)cc2Cl)on1` [WIN 54954], for which, in data set [2], the Metabolisation and excretion result is “fast metabolisation and excretion”. Moreover, the Side effects entry in data set [3] was “skin rash”. With `CCOC(=O)/C=C/[C@H](C[C@@H]1CCNC1=O)NC(=O)[C@@H](CC(=O)[C@@H](NC(=O)c1cc(C)on1)C(C)C)Cc1ccc(F)cc1` [AG 7088], the “Active concentration range in cell culture” value in data set [4] was “nanomolar concentration range”.

For the compound `CCC(=O)C(CCCCCCOc1ccc(OC)cc1Cl)C(=O)CC` [arildone], in data set [5], the Solubility entry is recorded as “Poor solubility”. Further, the Bioavailability result in data set [6] was “low bioavailability”.
